According to patent EP0863702B1, “FUNGICIDAL MIXTURE” (BASF AKTIENGESELLSCHAFT, priority 1995, dated 1997):

Assays:
[1] = test system: Botrytis cinerea; assay: Efficacy against Botrytis cinerea on paprika seedlings (protective spray); type: in vivo; details: single active, Paprikasämlinge, 5 Tage, 22 bis 24°C
Protocol: Paprikasämlinge der Sorte "Neusiedler Ideal Elite" wurden, nachdem sich 4 bis 5 Blätter gut entwickelt hatten, mit wäßrigen Suspensionen, die 80 % Wirkstoff und 20 % Emulgiermittel in der Trockensubstanz enthielten, tropfnaß gespritzt. Nach dem Antrocknen des Spritzbelages wurden die Pflanzen mit einer Konidienaufschwemmung des Pilzes Botrytis cinerea besprüht und bei 22 bis 24°C in eine Kammer mit hoher Luftfeuchtigkeit gestellt. Nach 5 Tagen hatte sich die Krankheit auf den unbehandelten Kontrollpflanzen so stark entwickelt, daß die entstandenen Blattnekrosen den überwiegenden Teil der Blätter bedeckten.
(§1) Die visuell ermittelten Werte für den Prozentanteil befallener Blattfläche wurden in Wirkungsgrade als % der unbehandelten Kontrolle umgerechnet. Wirkungsgrad 0 ist gleicher Befall wie in der unbehandelten Kontrolle, Wirkungsgrad 100 ist 0 % Befall. Die zu erwartenden Wirkungsgrade für Wirkstoffkombinationen wurden nach der Colby-Formel ermittelt (S. R. Colby "Calculating synergistic and antagonistic responses of herbicide combinations", Weeds 15, Seiten 20 bis 22 (1967)) und mit den beobachteten Wirkungsgraden verglichen.

[2] = test system: Botrytis cinerea; assay: Efficacy against Botrytis cinerea on slices of green paprika fruit; type: in vivo; details: single active, Paprikaschoten-Scheiben, 4 Tage, 18°C
Protocol: Scheiben von grünen Paprikaschoten wurden mit wäßriger Wirkstoffaufbereitung, die 80 % Wirkstoff und 20 % Emulgiermittel in der Trockensubstanz enthielt, tropfnaß besprüht. 2 Stunden nach dem Antrocknen des Spritzbelages wurden die Fruchtscheiben mit einer Sporensuspension von Botrytis cinerea, die 1,7 x 10^6 Sporen pro ml einer 2 %igen Biomalzlösung enthielt, inokuliert. Die inokulierten Fruchtscheiben wurden anschließend in feuchten Kammern bei 18°C für 4 Tage aufgestellt. Dann erfolgte visuell die Auswertung der Botrytis-Entwicklung auf den befallenen Fruchtscheiben.
as §1

Row | SMILES | Wirkungsgrad ([1]; 25 ppm in der Spritzbrühe) | Wirkungsgrad ([1]; 100 ppm in der Spritzbrühe) | Wirkungsgrad ([2]; 100 ppm in der Spritzbrühe) | Wirkungsgrad ([2]; 25 ppm in der Spritzbrühe)
1 | CC(C)(CCl)C(=O)Nc1ccc(O)c(Cl)c1Cl [(A)] | 40 % der unbehandelten Kontrolle | 84 % der unbehandelten Kontrolle | 20 % der unbehandelten Kontrolle | 
2 | CC1(C(=O)Nc2ccc(O)c(Cl)c2Cl)CC2CCC1C2 (centres unmarked) [(B)] | 65 % der unbehandelten Kontrolle | 80 % der unbehandelten Kontrolle | 25 % der unbehandelten Kontrolle | 10 % der unbehandelten Kontrolle
3 | CC1(C(=O)Nc2ccc(O)c(Cl)c2Cl)CCCCC1 [(C)] | 35 % der unbehandelten Kontrolle | 70 % der unbehandelten Kontrolle | 25 % der unbehandelten Kontrolle | 30 % der unbehandelten Kontrolle
